Laboratory results: ChEMBL document CHEMBL5137125, “Echiumin E, an Aryl Dihydronaphthalene Lignan from the Australian Invasive Plant Paterson's Curse (Echium plantagineum)” (J Nat Prod, 2022)

Assays:
[1] = Cytotoxicity against human WPMY-1 cells assessed as inhibition of cell growth and measured after 72 hrs resazurin reduction assay; assay type: toxicity, cell-based; conditions: for IC50 at 72 h: WPMY-1 cells
[2] = test system: SH-SY5Y; experiment: Cytotoxicity against human SH-SY5Y cells assessed as inhibition of cell growth and measured after 72 hrs resazurin reduction assay; assay type: functional, cell-based
[3] = test system: PC-3; experiment: Cytotoxicity against human PC-3 cells assessed as inhibition of cell growth and measured after 72 hrs resazurin reduction assay; assay type: functional, cell-based; conditions: PC-3, 72 h
[4] = test system: SH-SY5Y; experiment: Cytotoxicity against human SH-SY5Y cells assessed as inhibition of cell growth and measured upto 72 hrs by clonogenic assay; assay type: functional, cell-based
[5] = test system: HeLa; experiment: Cytotoxicity against human HeLa cells assessed as inhibition of cell growth and measured after 72 hrs resazurin reduction assay; assay type: functional, cell-based

Compound | Activity ([1]; wpmy-1, 72 h, time 72 hrs) | IC50 [2] [µM] | IC50 [3] [µM] | IC50 at 72 h [1] [µM] | IC50 [4] [µM] | IC50 [5] [µM]
COc1cc([C@H]2c3cc(O)c(OC)cc3C=C3C(=O)OC[C@H]4O[C@@](CO)(O[C@H]5O[C@H](COC(=O)/C=C/c6ccc(O[C@@H]7O[C@@H](C)[C@H](O)[C@@H](O)[C@H]7O)cc6)[C@@H](O)[C@H](O)[C@H]5O)[C@@H](OC(=O)[C@@H]32)[C@@H]4O)ccc1O | Non-Toxic | > 10 | > 10 | – | – | –
O=C(O[C@H](Cc1ccc(O)c(O)c1)C(=O)O)c1cc(-c2ccc(O)c(O)c2)c2cc(O)c(O)cc2c1 | – | > 10 | > 10 | > 10 | – | –
O=C(OC(Cc1ccc(O)c(O)c1)C(=O)O)C1=Cc2cc(O)c(O)cc2[C@H](c2ccc(O)c(O)c2)[C@H]1C(=O)O[C@@H](Cc1ccc(O)c(O)c1)C(=O)O (some centres undefined) | – | > 10 | > 10 | > 10 | – | –
CC(=O)O[C@@]12CO[C@@H]1C[C@H](O)[C@@]1(C)C(=O)[C@H](O)C3=C(C)[C@@H](OC(=O)[C@H](O)[C@@H](NC(=O)OC(C)(C)C)c4ccccc4)C[C@@](O)([C@@H](OC(=O)c4ccccc4)[C@H]21)C3(C)C [DOCETAXEL ANHYDROUS] | – | – | 0.0006 | 0.21 | 0.0018 | –
COc1cccc2c1C(=O)c1c(O)c3c(c(O)c1C2=O)C[C@@](O)(C(=O)CO)C[C@@H]3O[C@H]1C[C@H](N)[C@H](O)[C@H](C)O1 [DOXORUBICIN] | – | 0.04 | 0.01 | 0.02 | – | 1.96
O=C(/C=C/c1ccc(O)c(O)c1)O[C@H](Cc1ccc(O)c(O)c1)C(=O)O [ROSMARINIC ACID] | – | > 10 | > 10 | > 10 | – | –
